pIC50: −log10 of the molar value.
System: 633275-114-R-J1-PDC complex spheroids, viability
Assay: Anticancer human tumor 633275-114-R-J1-PDC patient-derived endometrial adenocarcinoma cell line growth inhibition [GQUAD]
Settings: for pIC50: curve of first compound; for viability, T/C: stronger effect = lower value
How it was run: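 Viability of tumor cells grown as complex spheroids with endothelial and stromal cells, exposed to drug combinations. Top concentration at or near clinical Cmax (else 10 microM), diluted in half-log increments.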

[1] = second compound 0.0316 µM, first compound 0.0316 µM
[2] = second compound 0.0316 µM, first compound 0.316 µM
[3] = second compound 0.1 µM, first compound 0.0316 µM
[4] = second compound 0.1 µM, first compound 0.316 µM
[5] = second compound 0.316 µM, first compound 0.0316 µM
[6] = second compound 0.316 µM, first compound 0.316 µM
[7] = second compound 1 µM, first compound 0.0316 µM
[8] = second compound 1 µM, first compound 0.316 µM
[9] = second compound 3.16 µM, first compound 0.0316 µM
[10] = second compound 3.16 µM, first compound 0.316 µM
[11] = second compound 10 µM, first compound 0.0316 µM
[12] = second compound 10 µM, first compound 0.316 µM
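Further: spheroids exposed to the agents for seven days.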
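Wherever viability, T/C is given: percent of DMSO vehicle control viability which is 100%.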

Cc1[nH]c2ccccc2c1CCNCc1ccc(/C=C/C(=O)NO)cc1 + Cc1cnc(CNC(=O)c2c(=O)c3ccc(N4CCCN(C)CC4)nc3n3c2sc2ccccc23)cn1
pIC50 (second compound 0.0316 µM): 7.89 | pIC50 (second compound 0.1 µM): 8.46 | pIC50 (second compound 0.316 µM): > 9.00 | pIC50 (second compound 1 µM): > 9.00 | pIC50 (second compound 3.16 µM): > 9.00 | pIC50 (second compound 10 µM): > 9.00 | viability, T/C (second compound 0.0316 µM, first compound 0.000999 µM): 65.8% | viability, T/C (second compound 0.0316 µM, first compound 0.00316 µM): 59.5% | viability, T/C (second compound 0.0316 µM, first compound 0.00999 µM): 52.6% | viability, T/C [1]: 41.3% | viability, T/C (second compound 0.0316 µM, first compound 0.0999 µM): 32% | viability, T/C [2]: 16.2% | viability, T/C (second compound 0.1 µM, first compound 0.000999 µM): 56.1% | viability, T/C (second compound 0.1 µM, first compound 0.00316 µM): 48% | viability, T/C (second compound 0.1 µM, first compound 0.00999 µM): 45.2% | viability, T/C [3]: 38% | viability, T/C (second compound 0.1 µM, first compound 0.0999 µM): 25.4% | viability, T/C [4]: 15.1% | viability, T/C (second compound 0.316 µM, first compound 0.000999 µM): 50.4% | viability, T/C (second compound 0.316 µM, first compound 0.00316 µM): 40.7% | viability, T/C (second compound 0.316 µM, first compound 0.00999 µM): 37.5% | viability, T/C [5]: 30.9% | viability, T/C (second compound 0.316 µM, first compound 0.0999 µM): 21.7% | viability, T/C [6]: 9.86% | viability, T/C (second compound 1 µM, first compound 0.000999 µM): 44.3% | viability, T/C (second compound 1 µM, first compound 0.00316 µM): 38.2% | viability, T/C (second compound 1 µM, first compound 0.00999 µM): 34.8% | viability, T/C [7]: 33.1% | viability, T/C (second compound 1 µM, first compound 0.0999 µM): 21.4% | viability, T/C [8]: 8.16% | viability, T/C (second compound 3.16 µM, first compound 0.000999 µM): 38.3% | viability, T/C (second compound 3.16 µM, first compound 0.00316 µM): 32.1% | viability, T/C (second compound 3.16 µM, first compound 0.00999 µM): 31.9% | viability, T/C [9]: 27.7% | viability, T/C (second compound 3.16 µM, first compound 0.0999 µM): 16.6% | viability, T/C [10]: 0.13% | viability, T/C (second compound 10 µM, first compound 0.000999 µM): 27.3% | viability, T/C (second compound 10 µM, first compound 0.00316 µM): 31.2% | viability, T/C (second compound 10 µM, first compound 0.00999 µM): 27.7% | viability, T/C [11]: 24.8% | viability, T/C (second compound 10 µM, first compound 0.0999 µM): 16.5% | viability, T/C [12]: 0.21%

COc1cccc2c1C(=O)c1c(O)c3c(c(O)c1C2=O)CC(O)(C(=O)CO)CC3OC1CC(N)C(O)C(C)O1 (centres undefined) + Cc1[nH]c2ccc(F)cc2c1-c1nc2c3cccnc3c3ncccc3c2[nH]1
pIC50 (second compound 0.0316 µM): 7.05 | pIC50 (second compound 0.1 µM): 7.02 | pIC50 (second compound 0.316 µM): 7.08 | pIC50 (second compound 1 µM): 7.14 | pIC50 (second compound 3.16 µM): 7.34 | pIC50 (second compound 10 µM): 7.40 | viability, T/C [1]: 64.4% | viability, T/C (second compound 0.0316 µM, first compound 0.1 µM): 47.5% | viability, T/C [2]: 32% | viability, T/C (second compound 0.0316 µM, first compound 1 µM): 21.5% | viability, T/C (second compound 0.0316 µM, first compound 3.16 µM): 2.36% | viability, T/C (second compound 0.0316 µM, first compound 10 µM): 1.69% | viability, T/C [3]: 65.3% | viability, T/C (second compound 0.1 µM, first compound 0.1 µM): 46.2% | viability, T/C [4]: 35.3% | viability, T/C (second compound 0.1 µM, first compound 1 µM): 20.6% | viability, T/C (second compound 0.1 µM, first compound 3.16 µM): 1.91% | viability, T/C (second compound 0.1 µM, first compound 10 µM): 1.66% | viability, T/C [5]: 62.5% | viability, T/C (second compound 0.316 µM, first compound 0.1 µM): 46% | viability, T/C [6]: 32.3% | viability, T/C (second compound 0.316 µM, first compound 1 µM): 20.3% | viability, T/C (second compound 0.316 µM, first compound 3.16 µM): 2.16% | viability, T/C (second compound 0.316 µM, first compound 10 µM): 1.4% | viability, T/C [7]: 62.2% | viability, T/C (second compound 1 µM, first compound 0.1 µM): 44% | viability, T/C [8]: 30.6% | viability, T/C (second compound 1 µM, first compound 1 µM): 20.6% | viability, T/C (second compound 1 µM, first compound 3.16 µM): 1.92% | viability, T/C (second compound 1 µM, first compound 10 µM): 1.57% | viability, T/C [9]: 54.4% | viability, T/C (second compound 3.16 µM, first compound 0.1 µM): 40.2% | viability, T/C [10]: 30.9% | viability, T/C (second compound 3.16 µM, first compound 1 µM): 18.6% | viability, T/C (second compound 3.16 µM, first compound 3.16 µM): 2.97% | viability, T/C (second compound 3.16 µM, first compound 10 µM): 1.41% | viability, T/C [11]: 52.9% | viability, T/C (second compound 10 µM, first compound 0.1 µM): 39.7% | viability, T/C [12]: 30.1% | viability, T/C (second compound 10 µM, first compound 1 µM): 19.4% | viability, T/C (second compound 10 µM, first compound 3.16 µM): 2.39% | viability, T/C (second compound 10 µM, first compound 10 µM): 1.46%

— PubChem BioAssay AID2060505 (Molecular Pharmacology Branch, DTP, NCI, 2025)
